Results: patent US20170216234A1, “BENZOATES FOR USE IN TREATING DEMENTIA” (priority 2014, published 2017)

How the values were obtained:
AD patients = conditions: some clinical studies; cited from earlier work
neuron death = conditions: cited from earlier work
healthy humans = conditions: cited from earlier work
[1] = both in vitro and in vivo studies; cited from earlier work
MCI and mild AD = conditions: cited from earlier work
MCI = conditions: treatment of MCI; cited from earlier work
NMDAR models = conditions: preclinical studies; cited from earlier work
[2] = tested on: patients with aMCI or mild AD; assay: Side effects, Udvalg for Kliniske Undersogelser Side-effects Rating Scale, in 24-week trial; format: in vivo, human
Description: Systemic side effects of treatments were evaluated by means of physical and neurological examinations and laboratory tests including CBC and biochemistry and reviewed by applying the Udvalg for Kliniske Undersogelser Side-effects Rating Scale at the baseline and weeks 8, 16, and 24.

[3] = tested on: patients with aMCI or mild AD; assay: Additional cognition composite (speed of processing, working memory, verbal learning and memory) in 24-week trial
[4] = Brain mass by magnetic resonance imaging study; format: in vivo
glial cells = conditions: preclinical studies; cited from earlier work
[5] = tested on: patients with aMCI or mild AD; assay: ADAS-cog in 24-week randomized double-blind placebo-controlled trial; conditions: for ADAS-cog score, mean difference from baseline: all subjects
[6] = tested on: patients with aMCI or mild AD; assay: CIBIC-plus in 24-week trial
[7] = tested on: patients with schizophrenia; conditions: 1000 mg/day, cited from earlier work

## N[C@@H]1CONC1=O [D-cycloserine]
AD patients
  Score on the cognitive subscale of the Alzheimer's Disease Assessment Scale (ADAS-cog): improve their score

## N[C@H](CO)C(=O)O [D-serine]
Neuron death
  Extent of neuron death: significantly decreases

## CNC1(c2ccccc2Cl)CCCCC1=O (centres unmarked) [Ketamine]
Healthy humans
  Spatial learning and verbal information ability: impaired

## C[C@]12N[C@H](Cc3ccccc31)c1ccccc12 [MK-801]
[1]
  Apoptosis and neurodegeneration: induce apoptosis and neurodegeneration

## CC12CC3CC(C)(C1)CC(N)(C3)C2 [Memantine]
MCI and mild AD; MCI
  Efficacy in treating MCI (British Association for Psychopharmacology consensus statement): neither AChEIs nor memantine is effective
MCI and mild AD; human, in vivo
  Efficacy at the early phase, including MCI and mild AD: limited efficacy

## Nc1nc2ncc(CNc3ccc(C(=O)N[C@@H](CCC(=O)O)C(=O)O)cc3)nc2c(=O)[nH]1 [folic acid]
MCI
  Cognitive enhancing effect: failed to show convincing evidence

## NC(=O)CN1CCCC1=O [piracetam, reference compound]
MCI
  Cognitive enhancing effect: failed to show convincing evidence

## O=C([O-])c1ccccc1.[Na+] [sodium benzoate]
NMDAR models
  Effect in NMDAR models such as pain relief: effective
[2]; 24-week treatment
  Tolerability: well-tolerated
[2]; all visits
  Reported side effects on Udvalg for Kliniske Undersogelser Side-effects Rating Scale: no reported side effect
[3]; CDR 1 subgroup, p=.041
  Additional cognition composite vs placebo, subgroup: better efficacy
[3]; CDR .5 subgroup, p=.063
  Additional cognition composite vs placebo, subgroup: borderline significance
[3]; endpoint
  Additional cognition composite effect size vs placebo: .78
[3]; endpoint, all subjects, p=.007
  Additional cognition composite vs placebo: better than placebo
[4]
  Brain mass: can increase the brain mass
Glial cells
  Cell death in glial cells: partially prevented cell death
[5]; CDR 1 subgroup, weeks 16 and 24 and endpoint (p=0151, p=.0387, p=.0092)
  ADAS-cog vs placebo, subgroup: greater improvement than placebo therapy
[5]; CDR .5 subgroup, throughout the study (p>.05)
  ADAS-cog vs placebo, subgroup: not superior to the placebo therapy
[5]; at the end of the study
  ADAS-cog effect size (Cohen's d) vs placebo: .86
[5]; endpoint, p=.0031 vs placebo
  ADAS-cog score, mean difference from baseline: 5.9
[5]; week 8, 250-750 mg/day, p=.3730 vs placebo
  ADAS-cog score, mean difference from baseline: 3.8
[5]; week 16, p=.0021 vs placebo
  ADAS-cog score, mean difference from baseline: 5.4
[5]; week 24, p=.0116 vs placebo
  ADAS-cog score, mean difference from baseline: 5.9
[6]; CDR 1 subgroup, week 24 and endpoint (p=.040, p=.018)
  CIBIC-plus vs placebo, subgroup: greater improvement than placebo therapy
[6]; aMCI (CDR .5) subgroup
  CIBIC-plus score, subgroup: did no improve
[6]; at endpoint
  CIBIC-plus effect size vs placebo: .73
[6]; week 16 (p=.015), week 24 (p=.016), endpoint (p=.012), all subjects
  CIBIC-plus score vs placebo: greater improvement
[7]; chronic schizophrenia
  Side effects in earlier schizophrenia study: without obvious side effects
[7]; patients with schizophrenia
  Neurocognitive function: beneficial

## omega-3 fatty acid
MCI
  Cognitive enhancing effect: failed to show convincing evidence

## vitamin E
MCI
  Cognitive enhancing effect: failed to show convincing evidence
